{"source": "paper PMC5430874", "about": "(Scientific Reports, 2017)", "format_in_all_cases": "cell-based", "key": {"untagged GPR139(WT)": {"biological_target": "T1, untagged GPR139(WT) (Homo sapiens, UniProt Q6DWJ6)", "T1 construct": "expressed in transfected cells; host or cells: HEK293", "T1 sequence (Q6DWJ6 1-353)": "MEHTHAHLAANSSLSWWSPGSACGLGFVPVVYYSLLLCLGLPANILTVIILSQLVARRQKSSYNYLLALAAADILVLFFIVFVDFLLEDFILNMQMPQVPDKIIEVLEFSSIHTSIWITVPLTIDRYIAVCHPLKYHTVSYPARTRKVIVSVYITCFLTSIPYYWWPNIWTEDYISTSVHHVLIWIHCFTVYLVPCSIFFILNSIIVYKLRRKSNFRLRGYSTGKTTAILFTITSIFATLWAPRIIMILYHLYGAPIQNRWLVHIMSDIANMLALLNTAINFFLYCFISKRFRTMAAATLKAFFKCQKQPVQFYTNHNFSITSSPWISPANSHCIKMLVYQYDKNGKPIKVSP", "assay": "Fluo-4 Ca2+-assay, untagged wild-type GPR139 in HEK293", "conditions": "untagged WT receptor", "description": "(§1) To study the influence of specific amino acids in the predicted binding pocket on receptor function, the desired mutations were introduced into an N-terminally c-myc-tagged wild type human GPR139 (NM_001002911.3) in the pEGFP-N1 vector (BD Biosciences)[32], [33]. As previously described, these plasmids carry the signal peptide of mGluR5 to promote cell surface expression followed by a c-myc epitope to enable detection of total and surface expression by ELISA, followed by an engineered MluI and NotI site for easy insertion of the receptor of interest. Furthermore, the start-codon in the GPR139 sequence was deleted to ensure c-myc-tagging. […]\n(§2) The Ca^2+ measurements were preformed using the Fluo-4 NW Calcium Assay Kit (Invitrogen, Molecular Probes, F36206) as previously described. […] Intracellular calcium changes were recorded as indicated on either a NOVOstar (BMG Labtech) at 37 °C with an excitation filter of 485 nm and an emission filters 520 nm or a FlexStation 3 Benchtop Multi-Mode Microplate Reader (Molecular Devices) at 37 °C with an excitation wavelength of 485 nm and emission of 525 nm.\n(§3) All pharmacological data have been analyzed by using Prism 6.0 (GraphPad Software Inc., San Diego). […] Changes in potency (pEC50) and span of myc-GPR139(WT) in comparison to untagged GPR139(WT) was statistically analyzed with a paired t-test and significance was accepted at p < 0.05. […]"}, "GPR139 E105A3x29": {"biological_target": "T2, GPR139 E105A3x29 (Homo sapiens, UniProt Q6DWJ6, E105A)", "T2 construct": "mGluR5 signal peptide (N); expressed in transfected cells; host or cells: HEK293", "T2 sequence (Q6DWJ6 2-353 E105A limits assumed)": "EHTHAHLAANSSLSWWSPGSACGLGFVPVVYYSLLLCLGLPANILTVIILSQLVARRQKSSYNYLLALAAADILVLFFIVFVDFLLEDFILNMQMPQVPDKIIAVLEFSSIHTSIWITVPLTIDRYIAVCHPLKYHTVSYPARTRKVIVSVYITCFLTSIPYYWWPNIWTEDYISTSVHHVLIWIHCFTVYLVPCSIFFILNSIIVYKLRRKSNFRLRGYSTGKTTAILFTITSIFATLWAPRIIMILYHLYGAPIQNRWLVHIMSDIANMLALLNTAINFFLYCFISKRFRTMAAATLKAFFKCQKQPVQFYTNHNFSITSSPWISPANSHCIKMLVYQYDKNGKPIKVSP", "assay": "Fluo-4 Ca2+-assay, GPR139 mutant E105A", "description": "as §1, §2, §3"}, "GPR139 H264A7x31": {"biological_target": "T3, GPR139 H264A7x31 (Homo sapiens, UniProt Q6DWJ6, H264A)", "T3 construct": "mGluR5 signal peptide (N); expressed in transfected cells; host or cells: HEK293", "T3 sequence (Q6DWJ6 2-353 H264A limits assumed)": "T2 sequence (Q6DWJ6 2-353 E105A limits assumed) with A104E, H263A", "assay": "Fluo-4 Ca2+-assay, GPR139 mutant H264A", "description": "as §1, §2, §3"}}, "note": "Numbering of substitutions follows the chain as printed.", "data": [{"smiles": "COc1cc(OC)cc(C(=O)NNC(=O)Nc2cccc3ccccc23)c1", "note": "[Compound 1a]", "values": [{"measurement": "EC50", "setting": "untagged GPR139(WT)", "result": 772, "unit": "nM"}, {"measurement": "EC50", "setting": "GPR139 E105A3x29; E105A mutant", "result": 129, "unit": "nM"}, {"measurement": "Emax", "setting": "GPR139 E105A3x29; E105A, normalized to buffer (0%) and 8 µM 1a (100%)", "result": "288 ± 27", "unit": "%"}, {"measurement": "EC50", "setting": "GPR139 H264A7x31; H264A mutant", "result": 251, "unit": "nM"}, {"measurement": "Emax", "setting": "GPR139 H264A7x31; H264A, normalized to buffer (0%) and 8 µM 1a (100%)", "result": "148 ± 15", "unit": "%"}]}]}
